Data taken from the supplement of paper PMC9386025.

What was measured:
Assay in all cases: drug sensitivity score (DSS) (DSS (dimensionless)); higher = more sensitive (stronger drug response)
FIMM-PDC7 = patient-derived ovarian cancer cells; conditions: genetic perturbation: none (patient-derived cell culture)
Method in brief: (§1)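 Cells, either patient-derived cultures or ovarian cancer cell lines given 100 ng/ml doxycycline for no less than three days to induce shRNA, went into 384-well plates at 1 000 – 1 500 per well over drugs pre-plated in five concentrations across a 10,000-fold range. The plates were held for three days at 37 °C with 5.0 % CO2. Cell viability was then taken from CellTiter-Glo luminescence on a PHERAstar FS. For each drug, a drug sensitivity score from its dose-response curve was obtained by a method described earlier.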

OVSAHO = tested on: OVSAHO
Method in brief: as §1

FIMM-PDC6 = patient-derived ovarian cancer cells; conditions: genetic perturbation: none (patient-derived cell culture)
Method in brief: as §1

FIMM-PDC3 = patient-derived ovarian cancer cells; conditions: genetic perturbation: none (patient-derived cell culture)
Method in brief: as §1

JHOS2 = tested on: JHOS2
Method in brief: as §1

FIMM-PDC4 = patient-derived ovarian cancer cells; conditions: genetic perturbation: none (patient-derived cell culture)
Method in brief: as §1

FIMM-PDC1 = patient-derived ovarian cancer cells; conditions: genetic perturbation: none (patient-derived cell culture)
Method in brief: as §1

FIMM-PDC5 = patient-derived ovarian cancer cells; conditions: genetic perturbation: none (patient-derived cell culture)
Method in brief: as §1

Kuramochi = tested on: Kuramochi
Method in brief: as §1

[1] = genetic perturbation: DOX-induced PTK7 shRNA knockdown
[2] = genetic perturbation: DOX-induced control shRNA

SMILES: CCc1cnn2c(NCc3ccc[n+]([O-])c3)cc(N3CCCC[C@H]3CCO)nc12 [Dinaciclib]
- drug sensitivity score (FIMM-PDC7): 22.4
- drug sensitivity score (OVSAHO; [1]): 24.8
- drug sensitivity score (OVSAHO; [2]): 16.4
- drug sensitivity score (FIMM-PDC6): 22.5
- drug sensitivity score (FIMM-PDC3): 17.5
- drug sensitivity score (JHOS2; [1]): 17.4
- drug sensitivity score (JHOS2; [2]): 19.6
- drug sensitivity score (FIMM-PDC4): 20.3
- drug sensitivity score (FIMM-PDC1): 20.8
- drug sensitivity score (FIMM-PDC5): 24.6
- drug sensitivity score (Kuramochi; [1]): 18.5
- drug sensitivity score (Kuramochi; [2]): 15.9

SMILES: CC(=O)O[C@@]12CO[C@@H]1C[C@H](O)[C@@]1(C)C(=O)[C@H](O)C3=C(C)[C@@H](OC(=O)[C@H](O)[C@@H](NC(=O)OC(C)(C)C)c4ccccc4)C[C@@](O)([C@@H](OC(=O)c4ccccc4)[C@H]21)C3(C)C [Docetaxel]
- drug sensitivity score (FIMM-PDC7): 7.2
- drug sensitivity score (OVSAHO; [1]): 7.6
- drug sensitivity score (OVSAHO; [2]): 13.5
- drug sensitivity score (FIMM-PDC6): 7.4
- drug sensitivity score (FIMM-PDC3): 21.6
- drug sensitivity score (JHOS2; [1]): 20.3
- drug sensitivity score (JHOS2; [2]): 12.7
- drug sensitivity score (FIMM-PDC4): 18.8
- drug sensitivity score (FIMM-PDC1): 15.6
- drug sensitivity score (FIMM-PDC5): 21.5
- drug sensitivity score (Kuramochi; [1]): 18
- drug sensitivity score (Kuramochi; [2]): 4.4

SMILES: COc1cccc2c1C(=O)c1c(O)c3c(c(O)c1C2=O)C[C@@](O)(C(=O)CO)C[C@@H]3O[C@H]1C[C@H](N)[C@H](O)[C@H](C)O1 [Doxorubicin]
- drug sensitivity score (FIMM-PDC7): 6.6
- drug sensitivity score (OVSAHO; [1]): 5.8
- drug sensitivity score (OVSAHO; [2]): 4.7
- drug sensitivity score (FIMM-PDC6): 3.7
- drug sensitivity score (FIMM-PDC3): 6.4
- drug sensitivity score (JHOS2; [1]): 7
- drug sensitivity score (JHOS2; [2]): 7.6
- drug sensitivity score (FIMM-PDC4): 6.8
- drug sensitivity score (FIMM-PDC1): 4.7
- drug sensitivity score (FIMM-PDC5): 5.4
- drug sensitivity score (Kuramochi; [1]): 5.1
- drug sensitivity score (Kuramochi; [2]): 5

SMILES: Cc1ccc(NS(=O)(=O)c2cccc(C#N)c2)c2[nH]cc(C#N)c12 [E7820]
- drug sensitivity score (FIMM-PDC7): 12.2
- drug sensitivity score (OVSAHO; [1]): 3
- drug sensitivity score (OVSAHO; [2]): 1.1
- drug sensitivity score (FIMM-PDC6): 5.9
- drug sensitivity score (FIMM-PDC3): 18.3
- drug sensitivity score (JHOS2; [1]): 9.6
- drug sensitivity score (JHOS2; [2]): 9.5
- drug sensitivity score (FIMM-PDC4): 3
- drug sensitivity score (FIMM-PDC1): 2.9
- drug sensitivity score (FIMM-PDC5): 6.4
- drug sensitivity score (Kuramochi; [1]): 2.4
- drug sensitivity score (Kuramochi; [2]): 1.5

SMILES: Cc1cc(Nc2cc(N3CCN(C)CC3)nc(/C=C/c3ccccc3)n2)n[nH]1 [ENMD-2076]
- drug sensitivity score (FIMM-PDC7): 4.2
- drug sensitivity score (OVSAHO; [1]): 11.5
- drug sensitivity score (OVSAHO; [2]): 7.9
- drug sensitivity score (FIMM-PDC6): 3.4
- drug sensitivity score (FIMM-PDC3): 8.6
- drug sensitivity score (JHOS2; [1]): 8.3
- drug sensitivity score (JHOS2; [2]): 9.4
- drug sensitivity score (FIMM-PDC4): 10.5
- drug sensitivity score (FIMM-PDC1): 6
- drug sensitivity score (FIMM-PDC5): 12.4
- drug sensitivity score (Kuramochi; [1]): 9.65
- drug sensitivity score (Kuramochi; [2]): 8.1

SMILES: NC(=O)/C(=C/n1cnc(-c2cc(C(F)(F)F)cc(C(F)(F)F)c2)n1)c1cncnc1 [Eltanexor]
- drug sensitivity score (FIMM-PDC7): 17.8
- drug sensitivity score (OVSAHO; [1]): 17.8
- drug sensitivity score (OVSAHO; [2]): 9.5
- drug sensitivity score (FIMM-PDC6): 25.8
- drug sensitivity score (FIMM-PDC3): 23.7
- drug sensitivity score (JHOS2; [1]): 18.9
- drug sensitivity score (JHOS2; [2]): 17
- drug sensitivity score (FIMM-PDC4): 19.9
- drug sensitivity score (FIMM-PDC1): 14.7
- drug sensitivity score (FIMM-PDC5): 22.4
- drug sensitivity score (Kuramochi; [1]): 12.4
- drug sensitivity score (Kuramochi; [2]): 17

SMILES: Nc1ccccc1NC(=O)c1ccc(CNC(=O)OCc2cccnc2)cc1 [Entinostat]
- drug sensitivity score (FIMM-PDC7): 6.5
- drug sensitivity score (OVSAHO; [1]): 8.5
- drug sensitivity score (OVSAHO; [2]): 4.6
- drug sensitivity score (FIMM-PDC6): 6.6
- drug sensitivity score (FIMM-PDC3): 9
- drug sensitivity score (JHOS2; [1]): 4.5
- drug sensitivity score (JHOS2; [2]): 2.5
- drug sensitivity score (FIMM-PDC4): 4.5
- drug sensitivity score (FIMM-PDC1): 7.1
- drug sensitivity score (FIMM-PDC5): 8.2
- drug sensitivity score (Kuramochi; [1]): 8.05
- drug sensitivity score (Kuramochi; [2]): 2.3

SMILES: COc1cccc2c1C(=O)c1c(O)c3c(c(O)c1C2=O)C[C@@](O)(C(=O)CO)C[C@@H]3O[C@H]1C[C@H](N)[C@@H](O)[C@H](C)O1 [Epirubicin]
- drug sensitivity score (FIMM-PDC7): 7.4
- drug sensitivity score (OVSAHO; [1]): 5.8
- drug sensitivity score (OVSAHO; [2]): 5.2
- drug sensitivity score (FIMM-PDC6): 3.5
- drug sensitivity score (FIMM-PDC3): 6.6
- drug sensitivity score (JHOS2; [1]): 7.1
- drug sensitivity score (JHOS2; [2]): 6.1
- drug sensitivity score (FIMM-PDC4): 7.9
- drug sensitivity score (FIMM-PDC1): 4.2
- drug sensitivity score (FIMM-PDC5): 5.6
- drug sensitivity score (Kuramochi; [1]): 4.45
- drug sensitivity score (Kuramochi; [2]): 3.9

SMILES: CCOc1ccccc1-n1c(C(C)N2CCN(C(=O)COc3ccc(Cl)cc3)CC2)nc2ccccc2c1=O (stereo not given) [Erastin]
- drug sensitivity score (FIMM-PDC7): 3.3
- drug sensitivity score (OVSAHO; [1]): 12.9
- drug sensitivity score (OVSAHO; [2]): 4.7
- drug sensitivity score (FIMM-PDC6): < 0
- drug sensitivity score (FIMM-PDC3): 17
- drug sensitivity score (JHOS2; [1]): 14.6
- drug sensitivity score (JHOS2; [2]): 16.2
- drug sensitivity score (FIMM-PDC4): < 0
- drug sensitivity score (FIMM-PDC1): 0.85
- drug sensitivity score (FIMM-PDC5): < 0
- drug sensitivity score (Kuramochi; [1]): 4.8
- drug sensitivity score (Kuramochi; [2]): 8.5

SMILES: C=C1C[C@@H]2CC[C@@]34C[C@H]5O[C@H]6[C@@H](O3)[C@H]3O[C@H](CC[C@@H]3O[C@H]6[C@H]5O4)CC(=O)C[C@@H]3[C@@H](OC)[C@@H](C[C@H](O)CN)O[C@H]3C[C@H]3O[C@@H](CC[C@@H]1O2)C[C@@H](C)C3=C [Eribulin]
- drug sensitivity score (FIMM-PDC7): 12.2
- drug sensitivity score (OVSAHO; [1]): 18.6
- drug sensitivity score (OVSAHO; [2]): 15.3
- drug sensitivity score (FIMM-PDC6): 12.3
- drug sensitivity score (FIMM-PDC3): 20.7
- drug sensitivity score (JHOS2; [1]): 19
- drug sensitivity score (JHOS2; [2]): 11.7
- drug sensitivity score (FIMM-PDC4): 21.1
- drug sensitivity score (FIMM-PDC1): 15.9
- drug sensitivity score (FIMM-PDC5): 25.5
- drug sensitivity score (Kuramochi; [1]): 18.6
- drug sensitivity score (Kuramochi; [2]): 5.7

SMILES: C#Cc1cccc(Nc2ncnc3cc(OCCOC)c(OCCOC)cc23)c1 [Erlotinib]
- drug sensitivity score (FIMM-PDC7): 10
- drug sensitivity score (OVSAHO; [1]): 15.1
- drug sensitivity score (OVSAHO; [2]): 2.4
- drug sensitivity score (FIMM-PDC6): 12.1
- drug sensitivity score (FIMM-PDC3): 11.3
- drug sensitivity score (JHOS2; [1]): 1.2
- drug sensitivity score (JHOS2; [2]): 3.5
- drug sensitivity score (FIMM-PDC4): 12
- drug sensitivity score (FIMM-PDC1): 3.3
- drug sensitivity score (FIMM-PDC5): 17.2
- drug sensitivity score (Kuramochi; [1]): 1.5
- drug sensitivity score (Kuramochi; [2]): 3

SMILES: COc1cc([C@@H]2c3cc4c(cc3[C@@H](O[C@@H]3O[C@@H]5CO[C@@H](C)O[C@H]5[C@H](O)[C@H]3O)[C@H]3COC(=O)[C@H]23)OCO4)cc(OC)c1O [Etoposide]
- drug sensitivity score (FIMM-PDC7): 1
- drug sensitivity score (OVSAHO; [1]): 2.7
- drug sensitivity score (OVSAHO; [2]): < 0
- drug sensitivity score (FIMM-PDC6): 2.9
- drug sensitivity score (FIMM-PDC3): 4.8
- drug sensitivity score (JHOS2; [1]): 4.7
- drug sensitivity score (JHOS2; [2]): 2.1
- drug sensitivity score (FIMM-PDC4): 1.8
- drug sensitivity score (FIMM-PDC1): 2.55
- drug sensitivity score (FIMM-PDC5): 1.9
- drug sensitivity score (Kuramochi; [1]): 0.5
- drug sensitivity score (Kuramochi; [2]): 2

SMILES: CO[C@H]1C[C@@H]2CC[C@@H](C)[C@@](O)(O2)C(=O)C(=O)N2CCCC[C@H]2C(=O)O[C@H]([C@H](C)C[C@@H]2CC[C@@H](OCCO)[C@H](OC)C2)CC(=O)[C@H](C)/C=C(\C)[C@@H](O)[C@@H](OC)C(=O)[C@H](C)C[C@H](C)/C=C/C=C/C=C/1C [Everolimus]
- drug sensitivity score (FIMM-PDC7): 0.4
- drug sensitivity score (OVSAHO; [1]): 0.9
- drug sensitivity score (OVSAHO; [2]): 6.2
- drug sensitivity score (FIMM-PDC6): < 0
- drug sensitivity score (FIMM-PDC3): 2.7
- drug sensitivity score (JHOS2; [1]): < 0
- drug sensitivity score (JHOS2; [2]): 3
- drug sensitivity score (FIMM-PDC4): 5.3
- drug sensitivity score (FIMM-PDC1): < 0
- drug sensitivity score (FIMM-PDC5): 8.3
- drug sensitivity score (Kuramochi; [1]): 4.1
- drug sensitivity score (Kuramochi; [2]): 2.2

SMILES: CCn1c(=O)c(-c2ccc(Cl)cc2Cl)cc2cnc(Nc3ccc(N4CCNCC4)c(F)c3)nc21 [FRAX486]
- drug sensitivity score (FIMM-PDC7): 6.5
- drug sensitivity score (OVSAHO; [1]): 10.8
- drug sensitivity score (OVSAHO; [2]): 4.8
- drug sensitivity score (FIMM-PDC6): 9.7
- drug sensitivity score (FIMM-PDC3): 6.5
- drug sensitivity score (JHOS2; [1]): 4.5
- drug sensitivity score (JHOS2; [2]): 8
- drug sensitivity score (FIMM-PDC4): 9.3
- drug sensitivity score (FIMM-PDC1): 4.5
- drug sensitivity score (FIMM-PDC5): 14.7
- drug sensitivity score (Kuramochi; [1]): 3.7
- drug sensitivity score (Kuramochi; [2]): 7.6

SMILES: Cc1cnc(Nc2ccc(OCCN3CCCC3)cc2)nc1Nc1cccc(S(=O)(=O)NC(C)(C)C)c1 [Fedratinib]
- drug sensitivity score (FIMM-PDC7): 2.9
- drug sensitivity score (OVSAHO; [1]): 7.2
- drug sensitivity score (OVSAHO; [2]): 8.8
- drug sensitivity score (FIMM-PDC6): 3
- drug sensitivity score (FIMM-PDC3): 4.3
- drug sensitivity score (JHOS2; [1]): 8.5
- drug sensitivity score (JHOS2; [2]): 9.1
- drug sensitivity score (FIMM-PDC4): 7
- drug sensitivity score (FIMM-PDC1): 3.65
- drug sensitivity score (FIMM-PDC5): 10.7
- drug sensitivity score (Kuramochi; [1]): 8.8
- drug sensitivity score (Kuramochi; [2]): 8.7
